Numbered stars: 1 amine (or outer) side, 2 acyl side, 3 side chain; on linkers, the order of the positions; unused ones are H or OH. Square brackets hold non-standard residues; d marks the D form. Peptide text beside a SMILES is read from it. * marks the point of attachment. Phe(3,4-(OMe)2) = COc1ccc(C[C@H](N)C(=O)O)cc1OC; Phe(3-CONH2) = NC(=O)c1cccc(C[C@H](N)C(=O)O)c1; Abu(4,4,4-F3) = N[C@@H](CC(F)(F)F)C(=O)O; Phe(4-CN) = N#Cc1ccc(C[C@H](N)C(=O)O)cc1; X6 = NC[C@@H](O)[C@@H](N[*:1])C(=O)[*:2]; Phe(3-F) = N[C@@H](Cc1cccc(F)c1)C(=O)O; Phe(3-Me) = Cc1cccc(C[C@H](N)C(=O)O)c1; Dab(3S-OH) = NC[C@H](O)[C@H](N)C(=O)O; Phe(2-F) = N[C@@H](Cc1ccccc1F)C(=O)O; ΔZArg = N=C(N)NCC/C=C(\N)C(=O)O; dOrn = NCCC[C@@H](N)C(=O)O; NH(CH2)4NH2 = NCCCCN*
Legend:
Experiment in all cases: MIC, broth microdilution (CLSI), reference strain
Details in all cases: CAMHB
[1] = tested on: Escherichia coli ATCC 25922
[2] = tested on: Staphylococcus aureus ATCC 13709
[3] = tested on: Pseudomonas aeruginosa ATCC 27853
[4] = tested on: Acinetobacter baumannii ATCC 19606

SMILES | Ec: MIC Escherichia coli ATCC 25922 [1] | Sa: MIC Staphylococcus aureus ATCC 13709 [2] | Pa: MIC Pseudomonas aeruginosa ATCC 27853 [3] | Ab: MIC Acinetobacter baumannii ATCC 19606 [4]
NCCCCNC(=O)[C@H](CCCCN)NC(=O)[C@@H](CCCCN)NC(=O)[C@H](CCCCN)NC(=O)[C@H](Cc1cnc[nH]1)NC(=O)[C@@H]1CCCN1C(=O)[C@@H](CCCN)NC(=O)CNC(=O)[C@@H](NC(=O)[C@@H](NC(=O)[C@@H](N)CCCCN)[C@@H](O)CN)[C@@H](O)CN [22.21] (H-K[Dab(3S-OH)][Dab(3S-OH)]G[dOrn]PHK[dK]K-{NH(CH2)4NH2}) | − (>32 μg/mL) | ++ (≤8 μg/mL) | − (>32 μg/mL) | − (>32 μg/mL)
NCCCCNC(=O)[C@H](CCCCN)NC(=O)[C@@H](CCCN)NC(=O)[C@H](CCCCN)NC(=O)[C@H](Cc1cnc[nH]1)NC(=O)[C@@H]1CCCN1C(=O)[C@@H](CCCN)NC(=O)CNC(=O)[C@@H](NC(=O)[C@@H](NC(=O)[C@@H](N)CCCCN)[C@@H](O)CN)[C@@H](O)CN [22.22] (H-K[Dab(3S-OH)][Dab(3S-OH)]G[dOrn]PHK[dOrn]K-{NH(CH2)4NH2}) | − (>32 μg/mL) | ++ (≤8 μg/mL) | − (>32 μg/mL) | − (>32 μg/mL)
CCOC(=O)[C@H](CCCCN)NC(=O)/C(=C/CCNC(=N)N)NC(=O)[C@H](CCCCN)NC(=O)[C@H](Cc1cnc[nH]1)NC(=O)[C@@H]1CCCN1C(=O)[C@@H](CCCN)NC(=O)CNC(=O)[C@@H](NC(=O)[C@@H](NC(=O)[C@@H](N)CCCCN)[C@@H](O)CN)[C@@H](O)CN [22.28] (H-K[Dab(3S-OH)][Dab(3S-OH)]G[dOrn]PHK[ΔZArg]K-OEt) | + (≤32 μg/mL) | ++ (≤8 μg/mL) | − (>32 μg/mL) | − (>32 μg/mL)
N=C(N)NCC/C=C(\NC(=O)[C@H](CCCCN)NC(=O)[C@H](Cc1cnc[nH]1)NC(=O)[C@@H]1CCCN1C(=O)[C@@H](CCCN)NC(=O)CNC(=O)[C@@H](NC(=O)[C@@H](NC(=O)[C@@H](N)CCCCN)[C@@H](O)CN)[C@@H](O)CN)C(=O)N[C@@H](CCCCN)C(=O)O [22.29] (H-K[Dab(3S-OH)][Dab(3S-OH)]G[dOrn]PHK[ΔZArg]K-OH) | + (≤32 μg/mL) | ++ (≤8 μg/mL) | − (>32 μg/mL) | − (>32 μg/mL)
N=C(N)NCCC[C@@H](NC(=O)[C@H](CCCCN)NC(=O)[C@H](Cc1cnc[nH]1)NC(=O)[C@@H]1CCCN1C(=O)[C@@H](CCCN)NC(=O)CNC(=O)[C@@H](NC(=O)[C@@H](NC(=O)[C@@H](N)CCCCN)[C@@H](O)CN)[C@@H](O)CN)C(N)=O [22.30] (H-K[Dab(3S-OH)][Dab(3S-OH)]G[dOrn]PHK[dR]-NH2) | + (≤32 μg/mL) | ++ (≤8 μg/mL) | − (>32 μg/mL) | − (>32 μg/mL)
N=C(N)NCC/C=C(\NC(=O)[C@H](CCCCN)NC(=O)[C@H](Cc1cnc[nH]1)NC(=O)[C@@H]1CCCN1C(=O)[C@@H](CCCN)NC(=O)CNC(=O)[C@@H](NC(=O)[C@@H](NC(=O)[C@@H](N)CCCCN)[C@@H](O)CN)[C@@H](O)CN)C(N)=O [22.31] (H-K[Dab(3S-OH)][Dab(3S-OH)]G[dOrn]PHK[ΔZArg]-NH2) | ++ (≤8 μg/mL) | ++ (≤8 μg/mL) | − (>32 μg/mL) | − (>32 μg/mL)
N=C(N)NCC/C=C(\NC(=O)[C@H](CCCCN)NC(=O)[C@H](Cc1cnc[nH]1)NC(=O)[C@@H]1CCCN1C(=O)[C@@H](CCCN)NC(=O)CNC(=O)[C@H](NC(=O)[C@@H](NC(=O)[C@@H](N)CCCCN)[C@@H](O)CN)[C@H](O)CN)C(=O)N[C@@H](CCCCN)C(=O)NCCCCN [22.32] (H-K[Dab(3S-OH)][X6]G[dOrn]PHK[ΔZArg]K-{NH(CH2)4NH2}) | − (>32 μg/mL) | ++ (≤8 μg/mL) | − (>32 μg/mL) | − (>32 μg/mL)
N=C(N)NCC/C=C(\NC(=O)[C@H](CCCCN)NC(=O)[C@H](Cc1ccccc1F)NC(=O)[C@@H]1CCCN1C(=O)[C@@H](CCCN)NC(=O)CNC(=O)[C@@H](NC(=O)[C@@H](NC(=O)[C@@H](N)CCCCN)[C@@H](O)CN)[C@@H](O)CN)C(=O)O [22.33] (H-K[Dab(3S-OH)][Dab(3S-OH)]G[dOrn]P[Phe(2-F)]K[ΔZArg]-OH) | ++ (≤8 μg/mL) | ++ (≤8 μg/mL) | − (>32 μg/mL) | − (>32 μg/mL)
COc1ccc(C[C@H](NC(=O)[C@@H]2CCCN2C(=O)[C@@H](CCCN)NC(=O)CNC(=O)[C@@H](NC(=O)[C@@H](NC(=O)[C@@H](N)CCCCN)[C@@H](O)CN)[C@@H](O)CN)C(=O)N[C@@H](CCCCN)C(=O)N/C(=C\CCNC(=N)N)C(=O)O)cc1OC [22.34] (H-K[Dab(3S-OH)][Dab(3S-OH)]G[dOrn]P[Phe(3,4-(OMe)2)]K[ΔZArg]-OH) | ++ (≤8 μg/mL) | ++ (≤8 μg/mL) | − (>32 μg/mL) | − (>32 μg/mL)
N=C(N)NCC/C=C(\NC(=O)[C@H](CCCCN)NC(=O)[C@H](Cc1cccc(C(N)=O)c1)NC(=O)[C@@H]1CCCN1C(=O)[C@@H](CCCN)NC(=O)CNC(=O)[C@@H](NC(=O)[C@@H](NC(=O)[C@@H](N)CCCCN)[C@@H](O)CN)[C@@H](O)CN)C(=O)O [22.35] (H-K[Dab(3S-OH)][Dab(3S-OH)]G[dOrn]P[Phe(3-CONH2)]K[ΔZArg]-OH) | − (>32 μg/mL) | − (>32 μg/mL) | − (>32 μg/mL) | − (>32 μg/mL)
N=C(N)NCC/C=C(\NC(=O)[C@H](CCCCN)NC(=O)[C@H](Cc1cccc(F)c1)NC(=O)[C@@H]1CCCN1C(=O)[C@@H](CCCN)NC(=O)CNC(=O)[C@@H](NC(=O)[C@@H](NC(=O)[C@@H](N)CCCCN)[C@@H](O)CN)[C@@H](O)CN)C(=O)O [22.36] (H-K[Dab(3S-OH)][Dab(3S-OH)]G[dOrn]P[Phe(3-F)]K[ΔZArg]-OH) | ++ (≤8 μg/mL) | ++ (≤8 μg/mL) | − (>32 μg/mL) | − (>32 μg/mL)
Cc1cccc(C[C@H](NC(=O)[C@@H]2CCCN2C(=O)[C@@H](CCCN)NC(=O)CNC(=O)[C@@H](NC(=O)[C@@H](NC(=O)[C@@H](N)CCCCN)[C@@H](O)CN)[C@@H](O)CN)C(=O)N[C@@H](CCCCN)C(=O)N/C(=C\CCNC(=N)N)C(=O)O)c1 [22.37] (H-K[Dab(3S-OH)][Dab(3S-OH)]G[dOrn]P[Phe(3-Me)]K[ΔZArg]-OH) | + (≤32 μg/mL) | ++ (≤8 μg/mL) | − (>32 μg/mL) | − (>32 μg/mL)
N#Cc1ccc(C[C@H](NC(=O)[C@@H]2CCCN2C(=O)[C@@H](CCCN)NC(=O)CNC(=O)[C@@H](NC(=O)[C@@H](NC(=O)[C@@H](N)CCCCN)[C@@H](O)CN)[C@@H](O)CN)C(=O)N[C@@H](CCCCN)C(=O)N/C(=C\CCNC(=N)N)C(=O)O)cc1 [22.38] (H-K[Dab(3S-OH)][Dab(3S-OH)]G[dOrn]P[Phe(4-CN)]K[ΔZArg]-OH) | ++ (≤8 μg/mL) | ++ (≤8 μg/mL) | − (>32 μg/mL) | − (>32 μg/mL)
COc1ccc(C[C@H](NC(=O)[C@@H]2CCCN2C(=O)[C@@H](CCCN)NC(=O)CNC(=O)[C@@H](NC(=O)[C@@H](NC(=O)[C@@H](N)CCCCN)[C@@H](O)CN)[C@@H](O)CN)C(=O)N[C@@H](CCCCN)C(=O)N/C(=C\CCNC(=N)N)C(=O)O)cc1 [22.39] (H-K[Dab(3S-OH)][Dab(3S-OH)]G[dOrn]PY(Me)K[ΔZArg]-OH) | + (≤32 μg/mL) | ++ (≤8 μg/mL) | − (>32 μg/mL) | − (>32 μg/mL)
N=C(N)NCC/C=C(\NC(=O)[C@H](CCCCN)NC(=O)[C@H](CC(F)(F)F)NC(=O)[C@@H]1CCCN1C(=O)[C@@H](CCCN)NC(=O)CNC(=O)[C@@H](NC(=O)[C@@H](NC(=O)[C@@H](N)CCCCN)[C@@H](O)CN)[C@@H](O)CN)C(=O)O [22.40] (H-K[Dab(3S-OH)][Dab(3S-OH)]G[dOrn]P[Abu(4,4,4-F3)]K[ΔZArg]-OH) | + (≤32 μg/mL) | ++ (≤8 μg/mL) | − (>32 μg/mL) | − (>32 μg/mL)
N=C(N)NCC/C=C(\NC(=O)[C@H](CCCCN)NC(=O)[C@H](Cc1c[nH]c2ccccc12)NC(=O)[C@@H]1CCCN1C(=O)[C@@H](CCCN)NC(=O)CNC(=O)[C@@H](NC(=O)[C@@H](NC(=O)[C@@H](N)CCCCN)[C@@H](O)CN)[C@@H](O)CN)C(=O)O [22.41] (H-K[Dab(3S-OH)][Dab(3S-OH)]G[dOrn]PWK[ΔZArg]-OH) | ++ (≤8 μg/mL) | ++ (≤8 μg/mL) | − (>32 μg/mL) | − (>32 μg/mL)
N=C(N)NCC/C=C(\NC(=O)[C@H](CCCCN)NC(=O)[C@H](Cc1cnc[nH]1)NC(=O)[C@@H]1CCCN1C(=O)[C@@H](CCCN)NC(=O)CNC(=O)CNC(=O)[C@@H](NC(=O)[C@@H](N)CCCCN)[C@@H](O)CN)C(=O)N[C@@H](CCCCN)C(=O)NCCCCN [23.1] (H-K[Dab(3S-OH)]GG[dOrn]PHK[ΔZArg]K-{NH(CH2)4NH2}) | ++ (≤8 μg/mL) | ++ (≤8 μg/mL) | − (>32 μg/mL) | − (>32 μg/mL)

— patent US10626144B2, “Peptide derivatives and uses thereof” (Nosopharm, priority 2014, dated 2020)
